Experimental data: ChEMBL document CHEMBL3286361, “Design and discovery of flavonoid-based HIV-1 integrase inhibitors targeting both the active site and the interaction with LEDGF/p75” (Bioorg Med Chem, 2014)
Converted amounts (≈) assume the structure as drawn.

Key:
[1] = target: T1, Human immunodeficiency virus type 1 integrase (Human immunodeficiency virus 1, UniProt Q7ZJM1); assay: Inhibition of recombinant HIV-1 integrase 3'-processing activity using 32P 5' end-labeled linear 21'mer as substrate preincubated for 30 mins prior to substrate challenge by phosphorimaging analysis
[2] = target: T1, Human immunodeficiency virus type 1 integrase; assay: Inhibition of recombinant HIV-1 integrase strand transfer activity using 32P 5' end-labeled linear 21'mer as substrate preincubated for 30 mins prior to substrate challenge by phosphorimaging analysis
[3] = tested on: Human immunodeficiency virus 1; assay: Antiviral activity against HIV-1 3B infected in human C8166 cells assessed as inhibition of virus-induced cytopathogenicity by measuring syncytial cell number after 3 days by inverted microscopic analysis; assay type: functional, organism-based; settings: Human immunodeficiency virus 1, 3B, C8166, 72 h
[4] = Cytotoxicity against human C8166 cells assessed as inhibition of cell proliferation after 72 hrs by MTT assay; assay type: cell-based
[5] = Therapeutic index, ratio of CC50 for human C8166 cells to EC50 for HIV-1 3B infected in human C8166 cells; assay type: cell-based; settings: HIV-1 3B infected C8166 cells, read-out: Ratio CC50/EC50
[6] = target: T1, Human immunodeficiency virus type 1 integrase; assay: Inhibition of His6-tagged HIV-1 integrase assessed as decrease in integrase-Flag-LEDGF/p75 interaction preincubated with enzyme for 30 mins followed by addition of Flag-LEDGF/p75 for 1 hr by AlphaScreen assay

T1 sequence (Q7ZJM1 whole entry): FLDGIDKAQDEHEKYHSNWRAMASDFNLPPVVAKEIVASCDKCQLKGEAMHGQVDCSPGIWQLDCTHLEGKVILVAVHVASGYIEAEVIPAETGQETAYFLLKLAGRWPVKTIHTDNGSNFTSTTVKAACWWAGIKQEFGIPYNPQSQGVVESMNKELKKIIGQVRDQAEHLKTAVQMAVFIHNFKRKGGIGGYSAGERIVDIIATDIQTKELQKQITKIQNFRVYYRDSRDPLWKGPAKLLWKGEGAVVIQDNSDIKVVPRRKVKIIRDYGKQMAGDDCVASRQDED

Structure (SMILES)	IC50 [1] [µM]	IC50 [2] [µM]	EC50 [3] [µg/mL]	IC50 [6] [nM]	CC50 at 72 h [4] [µg/mL]	selectivity ratio [5]
CC(C)(C)Oc1cc2oc(-c3ccccc3)cc(=O)c2c(O)c1O	> 100	> 100	8.45 (≈ 25.9 µM)	> 20000	40.5 (≈ 124 µM)	5
O=c1cc(-c2ccc(O)c(O)c2)oc2cc(N3CCOCC3)cc(O)c12	> 20	> 20	2.21 (≈ 6.22 µM)	1600	63.6 (≈ 179 µM)	29
CC(C)(C)Oc1cc(O)c2c(=O)cc(-c3ccc(O)cc3)oc2c1	> 20	> 20	3.2 (≈ 9.81 µM)	> 20000	25 (≈ 76.6 µM)	8
O=c1cc(-c2ccc(O)cc2)oc2cc(N3CCOCC3)cc(O)c12	> 20	> 20	68.4 (≈ 202 µM)	1700	105 (≈ 311 µM)	1.5
CC(C)(C)Oc1cc(O)c2c(=O)cc(-c3ccccc3)oc2c1	> 100	50	12.1 (≈ 39 µM)	> 20000	61.2 (≈ 197 µM)	5
O=c1cc(-c2ccccc2)oc2cc(N3CCOCC3)cc(O)c12	> 20	> 20	> 200	> 20000	> 200	
CC(C)(C)Oc1cc(O)c2c(c1)O[C@H](c1ccc(O)cc1)CC2=O	> 100	> 100	3.05 (≈ 9.29 µM)	> 20000	25.4 (≈ 77.4 µM)	8
CC(C)(C)Oc1cc(O)c2c(=O)c(-c3ccc(O)cc3)coc2c1	> 100	70	> 47.7	> 20000	47.7 (≈ 146 µM)	
O=c1c(-c2ccc(O)cc2)coc2cc(N3CCOCC3)cc(O)c12	> 20	> 20	0.826 (≈ 2.43 µM)	1700	> 200	> 242
O=c1c(O)c(-c2ccc3c(c2)OC(c2ccccc2)(c2ccccc2)O3)oc2cc(O)cc(O)c12	> 20	> 20		> 20000		
O=c1cc(-c2ccc(O)cc2)oc2cc(O)cc(O)c12 [APIGENIN]	> 20	> 20	4.46 (≈ 16.5 µM)	1500	17.2 (≈ 63.6 µM)	4
O=c1cc(-c2ccccc2)oc2cc(O)c(O)c(O)c12 [BAICALEIN]			1.67 (≈ 6.18 µM)		30.3 (≈ 112 µM)	
O=c1cc(-c2ccccc2)oc2cc(O)cc(O)c12 [CHRYSIN]	> 20	> 20	13.4 (≈ 52.7 µM)	1400	110 (≈ 433 µM)	8
O=c1c(-c2ccc(O)cc2)coc2cc(O)cc(O)c12 [GENISTEIN]	> 20	> 20	13.9 (≈ 51.4 µM)	1100	36.2 (≈ 134 µM)	3
O=c1cc(-c2ccc(O)c(O)c2)oc2cc(O)cc(O)c12 [LUTEOLIN]	> 20	8.9	2.48 (≈ 8.66 µM)	450	17.9 (≈ 62.5 µM)	7
O=C1C[C@@H](c2ccc(O)cc2)Oc2cc(O)cc(O)c21 [NARINGENIN]	> 20	> 20	9.47 (≈ 34.8 µM)	1700	142 (≈ 520 µM)	15
O=c1c(O)c(-c2ccc(O)c(O)c2)oc2cc(O)cc(O)c12 [QUERCETIN]	> 20	8	2.05 (≈ 6.78 µM)	600	105 (≈ 347 µM)	44

The next lines start with results.

IC50 [1] [µM]	IC50 [2] [µM]	EC50 [3] [µg/mL]	IC50 [6] [nM]	Structure (SMILES)	CC50 at 72 h [4] [µg/mL]	selectivity ratio [5]
> 20	> 20	1.95 (≈ 4.75 µM)	380	O=c1c(OCc2ccc(F)cc2)c(-c2ccc(O)c(O)c2)oc2cc(O)cc(O)c12	22.5 (≈ 54.8 µM)	12
20	4	> 5.68	940	O=c1c(O)c(-c2ccc(O)c(O)c2)oc2cc(OCc3ccc(F)cc3)cc(O)c12	5.68 (≈ 13.8 µM)	
> 20	> 20	5.05 (≈ 13.6 µM)	970	O=c1c(O)c(-c2ccc(O)c(O)c2)oc2cc(N3CCOCC3)cc(O)c12	24.7 (≈ 66.5 µM)	5
> 20	7	3.04 (≈ 8.03 µM)	> 20000	O=c1cc(-c2ccccc2)oc2cc(OCc3ccc(F)cc3)c(O)c(O)c12	5.8 (≈ 15.3 µM)	2
> 20	> 20	7.37 (≈ 18.7 µM)		O=c1cc(-c2ccc(O)c(O)c2)oc2cc(OCc3ccc(F)cc3)cc(O)c12	16.2 (≈ 41.1 µM)	2
80	35	10.7 (≈ 28.3 µM)	> 20000	O=c1cc(-c2ccc(O)cc2)oc2cc(OCc3ccc(F)cc3)cc(O)c12	16.8 (≈ 44.4 µM)	1.6
> 20	> 20	> 8.35	> 20000	O=c1cc(-c2ccccc2)oc2cc(OCc3ccc(F)cc3)cc(O)c12	8.35 (≈ 23 µM)	
> 100	> 100	2.06 (≈ 5.42 µM)		O=C1C[C@@H](c2ccc(O)cc2)Oc2cc(OCc3ccc(F)cc3)cc(O)c21	11.5 (≈ 30.2 µM)	6
> 100	80	11 (≈ 29.1 µM)	> 20000	O=c1c(-c2ccc(O)cc2)coc2cc(OCc3ccc(F)cc3)cc(O)c12	> 200	> 18
> 20	7.6	4.54 (≈ 11.1 µM)	1800	O=c1c(O)c(-c2ccc(O)c(O)c2)oc2cc(O)cc(OCc3ccc(F)cc3)c12	24 (≈ 58.5 µM)	5
> 20	> 20	0.47 (≈ 1.15 µM)	1800	O=c1c(O)c(-c2ccc(O)c(OCc3ccc(F)cc3)c2)oc2cc(O)cc(O)c12	23.8 (≈ 58 µM)	51
> 20	> 20	4.1 (≈ 9.99 µM)	1400	O=c1c(O)c(-c2ccc(OCc3ccc(F)cc3)c(O)c2)oc2cc(O)cc(O)c12	23.4 (≈ 57 µM)	6
